Literature values, collected in patent US11111250B2 (SHILPA MEDICARE LIMITED, priority 2017, dated 2021).

How the values were obtained:
[1] = aqueous media, pH dependence
[2] = long term and accelerated stability studies, stored in the proposed packaging

Row | Substance | solubility [1] | polymorphic stability [2]
1 | Ribociclib mono succinate | soluble in acidic aqueous media, becoming less soluble as pH increases | 
2 | Ribociclib mono succinate [Ribociclib mono succinate form A] |  | stable and not to convert into other polymorphic forms
